Test systems include U-251; KM12; NCI-H460; BT-549; LOX IMVI; IGROV-1; SW-620; HOP-62; UO-31; PC-3; RPMI-8226; MOLT-4; SN12C; 786-0; MDA-MB-435; M14; TK-10; T47D; SR.
Common to all, as to experiment: NCI anticancer screen, dose series, 48 h

SMILES strings stand for the structures.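 Interpolation was linear, between the two tested concentrations surrounding the appropriate level; five concentrations were tested over 48 hours in 96-well plates. Here, GI50 denotes the concentration required for 50% inhibition of growth.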 The source made the active and inactive calls. Rule as the data show it: active = GI50 up to about 1.1 µM and inactive = higher.

Regarding `CCSC1SC(c2ccccc2)(c2ccccc2)c2ccccc21` (stereo unspecified), the GI50 in the assay on U-251 is 92.3 µM (inactive); in the assay on KM12, 38.5 µM (inactive); with NCI-H460, 36.9 µM (inactive); in the assay with BT-549, 39.8 µM (inactive); in the assay with LOX IMVI, 45.1 µM (inactive); with IGROV-1 it was 75.3 µM (inactive). Also, the GI50 was 54.8 µM (inactive) with SW-620; > 100 µM (inactive) in the assay with HOP-62; 47.5 µM (inactive) in the assay on UO-31; 39.4 µM (inactive) in the assay on PC-3; 32.8 µM (inactive) in the assay with RPMI-8226; 25.4 µM (inactive) with MOLT-4. Further, the GI50 with SN12C was 38.3 µM (inactive); in the assay on 786-0, 43.4 µM (inactive); in the assay on MDA-MB-435 it was 33.7 µM (inactive); with M14, 31.2 µM (inactive); in the assay with TK-10, 67.3 µM (inactive).

As to `Sc1nn2c(COc3ccc(Cl)cc3)nnc2s1`, the GI50 with U-251, in the assay on KM12, in the assay on NCI-H460, with T47D, in the assay on IGROV-1 and with SR was > 100 µM (inactive) in each case. Also, the GI50 in the assay on SW-620, in the assay with HOP-62, with UO-31, in the assay on PC-3, with RPMI-8226 and in the assay with MOLT-4 was > 100 µM (inactive) in each case. The GI50 in the assay with SN12C, with 786-0, in the assay with MDA-MB-435, in the assay with M14 and in the assay on TK-10 was > 100 µM (inactive) in each case.

`O=C(N=C1N(c2ccccc2)C(=O)C(=O)N1c1ccccc1)c1ccccc1`: the GI50 in the assay on U-251 was 11.7 µM (inactive); in the assay with KM12, 17.3 µM (inactive); in the assay with NCI-H460 it was 11.7 µM (inactive); in the assay with LOX IMVI, 3.78 µM (inactive); in the assay on T47D it was 15.6 µM (inactive); with IGROV-1 it was 10.5 µM (inactive). Besides, the GI50 with SR was 7.46 µM (inactive); in the assay with SW-620, 13.1 µM (inactive); with HOP-62, 11.5 µM (inactive); in the assay on UO-31 it was 14.5 µM (inactive); in the assay on PC-3, 14.7 µM (inactive); in the assay on RPMI-8226, 13.8 µM (inactive). Also, the GI50 is 15.5 µM (inactive) in the assay with MOLT-4; 10.6 µM (inactive) in the assay on SN12C; 3.68 µM (inactive) in the assay with 786-0; 22.9 µM (inactive) in the assay on MDA-MB-435; 15.3 µM (inactive) in the assay on TK-10.

Regarding `COC(=O)C1(O)CC(=O)CCC1c1ccc(OC)cc1` (stereo unspecified), the GI50 with U-251, in the assay with KM12, with NCI-H460, with LOX IMVI, in the assay on IGROV-1 and in the assay with SR was > 100 µM (inactive) in each case. Besides, the GI50 with SW-620, with HOP-62, with UO-31, with RPMI-8226, with MOLT-4 and in the assay with SN12C was > 100 µM (inactive) in each case. In addition, the GI50 with 786-0, with M14 and in the assay with TK-10 was > 100 µM (inactive) throughout.

Turning to `CSc1cc(Br)ccc1-n1c(C(=O)c2ccccc2)c(SC)n(-c2ccccc2)c1=O`, the GI50 is > 100 µM (inactive) with U-251; > 100 µM (inactive) with KM12; 50.9 µM (inactive) in the assay on NCI-H460; > 100 µM (inactive) with BT-549; > 100 µM (inactive) with LOX IMVI; > 100 µM (inactive) in the assay on IGROV-1. Besides, the GI50 was 74.5 µM (inactive) with SR; 19 µM (inactive) in the assay with SW-620; > 100 µM (inactive) with HOP-62; 67 µM (inactive) in the assay on UO-31; 5.53 µM (inactive) in the assay with PC-3; 5.28 µM (inactive) with MOLT-4. The GI50 in the assay with SN12C is > 100 µM (inactive); in the assay with 786-0 it was > 100 µM (inactive); with MDA-MB-435 it was 7.59 µM (inactive); in the assay on M14, 96.2 µM (inactive); in the assay on TK-10 it was > 100 µM (inactive).

With `FC(F)(F)c1cccc(-c2nc3ccccc3c3c2[C@@]2(N4CCCC4)CCCC[C@@H]32)c1`, the GI50 was 23.1 µM (inactive) in the assay on U-251; 35.6 µM (inactive) in the assay with KM12; 28.1 µM (inactive) in the assay on NCI-H460; 18.1 µM (inactive) in the assay on LOX IMVI; 76 µM (inactive) with T47D; 12 µM (inactive) in the assay with IGROV-1. The GI50 in the assay on SR is 40.9 µM (inactive); in the assay with SW-620, 36.2 µM (inactive); in the assay with HOP-62, 32.3 µM (inactive); in the assay with UO-31, 18 µM (inactive); in the assay on PC-3, 37 µM (inactive); with RPMI-8226 it was 17.5 µM (inactive). In addition, the GI50 with MOLT-4 was 28.1 µM (inactive); with SN12C, 40.4 µM (inactive); in the assay with 786-0 it was 38.4 µM (inactive); in the assay on MDA-MB-435 it was 23.6 µM (inactive); with M14 it was 66.2 µM (inactive); in the assay on TK-10, 30.3 µM (inactive).

For `COC(=O)C(=O)C(C(=O)C(=O)Nc1ccc(Cl)cc1Cl)c1nc2ccc(Cl)cc2nc1O` (stereo unspecified), the GI50 with U-251 is > 100 µM (inactive); with KM12, > 100 µM (inactive); in the assay with NCI-H460, > 100 µM (inactive); in the assay with BT-549 it was > 100 µM (inactive); in the assay with LOX IMVI, > 100 µM (inactive); in the assay on IGROV-1 it was 58.7 µM (inactive). Moreover, the GI50 in the assay on SW-620 is > 100 µM (inactive); in the assay with HOP-62, > 100 µM (inactive); in the assay on UO-31, 28.4 µM (inactive); in the assay on PC-3 it was > 100 µM (inactive); in the assay on MOLT-4 it was 82.8 µM (inactive); with SN12C, > 100 µM (inactive). Further, the GI50 was > 100 µM (inactive) in the assay on 786-0, > 100 µM (inactive) with MDA-MB-435, > 100 µM (inactive) in the assay on M14 and 69.8 µM (inactive) in the assay with TK-10.

In the case of `Nc1ccc2c(c1)NCCN2`, the GI50 in the assay on U-251 was 22.9 µM (inactive); in the assay on KM12 it was > 100 µM (inactive); in the assay on NCI-H460, 4.39 µM (inactive); in the assay with BT-549 it was 37.2 µM (inactive); with LOX IMVI, 8.05 µM (inactive); in the assay with IGROV-1 it was 8.36 µM (inactive). For the same compound, the GI50 in the assay with SR was 1.69 µM (inactive); in the assay on HOP-62, > 100 µM (inactive); with UO-31, 17.4 µM (inactive); in the assay with PC-3 it was > 100 µM (inactive); in the assay on RPMI-8226 it was 70.1 µM (inactive); with MOLT-4, 2.75 µM (inactive). For the same compound, the GI50 with SN12C was 48.8 µM (inactive); in the assay on 786-0 it was > 100 µM (inactive); in the assay with MDA-MB-435, 82 µM (inactive); with M14, 73.1 µM (inactive); in the assay on TK-10 it was 55.7 µM (inactive).

As for `O=C1NNC2NC(=O)C3(NN2C1=O)c1ccccc1-c1ccccc13` (stereo unspecified), the GI50 in the assay with U-251, with NCI-H460, with BT-549, in the assay on LOX IMVI, in the assay on IGROV-1 and in the assay with SR was > 100 µM (inactive) throughout. Besides, the GI50 in the assay on SW-620, in the assay on HOP-62, in the assay with UO-31, with PC-3, with SN12C and in the assay on 786-0 was > 100 µM (inactive) each time. Further, the GI50 with MDA-MB-435, with M14 and in the assay on TK-10 was > 100 µM (inactive) in each case.

`CC(=O)OC1c2ccccc2CC2(OC(C)=O)c3ccccc3C12` (stereo unspecified): the GI50 in the assay on U-251, with KM12, with NCI-H460, in the assay with LOX IMVI, in the assay on T47D and in the assay with IGROV-1 was > 100 µM (inactive) throughout. Besides, the GI50 in the assay on SR, in the assay on SW-620, in the assay on HOP-62, in the assay on UO-31, with PC-3 and in the assay on RPMI-8226 was > 100 µM (inactive) throughout. Moreover, the GI50 in the assay with MOLT-4, in the assay on SN12C, in the assay with 786-0, with MDA-MB-435, in the assay with M14 and in the assay on TK-10 was > 100 µM (inactive) each time.

With `COc1ccc(C2=Nc3c(nc(SC)[nH]c3=O)NC(c3ccccc3)C2)cc1` (stereo unspecified), the GI50 was 18.9 µM (inactive) in the assay with U-251; 16.6 µM (inactive) in the assay on KM12; 24.8 µM (inactive) in the assay with BT-549; 30.5 µM (inactive) in the assay on LOX IMVI; 19.5 µM (inactive) in the assay on IGROV-1; 73.3 µM (inactive) in the assay with SR. For the same compound, the GI50 is 44.9 µM (inactive) with SW-620; 35.4 µM (inactive) in the assay on HOP-62; 20.8 µM (inactive) in the assay on UO-31; 33.7 µM (inactive) with PC-3; 27.2 µM (inactive) in the assay on RPMI-8226; 18.7 µM (inactive) in the assay with MOLT-4. Moreover, the GI50 in the assay with SN12C is 20.9 µM (inactive); in the assay with 786-0 it was 26.3 µM (inactive); in the assay on MDA-MB-435, 29.2 µM (inactive); in the assay on M14, 25.4 µM (inactive).

`COc1c2c3c4c(c(OC)c(=O)c5c(O)cc(OC)c(c6c(OC)cc(O)c(c1=O)c63)c54)C(C(C)O)C2C(C)=O` (stereo unspecified): the GI50 with U-251 was 0.299 µM (active); in the assay on KM12, 0.431 µM (active); in the assay on NCI-H460, 0.226 µM (active); with LOX IMVI, 0.244 µM (active); in the assay with T47D it was 0.454 µM (active); in the assay on IGROV-1 it was 0.445 µM (active). Moreover, the GI50 in the assay with SR is 0.178 µM (active); with SW-620, 0.395 µM (active); in the assay on HOP-62 it was 0.177 µM (active); in the assay with UO-31, 0.325 µM (active); with PC-3, 0.26 µM (active); in the assay on RPMI-8226, 0.513 µM (active). In addition, the GI50 was 0.279 µM (active) in the assay with MOLT-4; 0.485 µM (active) in the assay on SN12C; 0.61 µM (active) in the assay on 786-0; 0.295 µM (active) in the assay with MDA-MB-435; 0.288 µM (active) with M14; 0.581 µM (active) in the assay with TK-10.

(Values after ChEMBL document CHEMBL1201862, “PubChem BioAssay data set” (2004).)
